Experimental findings from ChEMBL document CHEMBL1139650, “In silico fragment-based discovery of DPP-IV S1 pocket binders” (Bioorg Med Chem Lett, 2006) are described below.

Structures are written as SMILES. pIC50: −log10 of the molar value.

The target of this assay is Dipeptidyl peptidase 4 (Homo sapiens, UniProt P27487). Nature of the assay: Inhibition of DPP4.
Chain of Dipeptidyl peptidase 4 (P27487 whole entry): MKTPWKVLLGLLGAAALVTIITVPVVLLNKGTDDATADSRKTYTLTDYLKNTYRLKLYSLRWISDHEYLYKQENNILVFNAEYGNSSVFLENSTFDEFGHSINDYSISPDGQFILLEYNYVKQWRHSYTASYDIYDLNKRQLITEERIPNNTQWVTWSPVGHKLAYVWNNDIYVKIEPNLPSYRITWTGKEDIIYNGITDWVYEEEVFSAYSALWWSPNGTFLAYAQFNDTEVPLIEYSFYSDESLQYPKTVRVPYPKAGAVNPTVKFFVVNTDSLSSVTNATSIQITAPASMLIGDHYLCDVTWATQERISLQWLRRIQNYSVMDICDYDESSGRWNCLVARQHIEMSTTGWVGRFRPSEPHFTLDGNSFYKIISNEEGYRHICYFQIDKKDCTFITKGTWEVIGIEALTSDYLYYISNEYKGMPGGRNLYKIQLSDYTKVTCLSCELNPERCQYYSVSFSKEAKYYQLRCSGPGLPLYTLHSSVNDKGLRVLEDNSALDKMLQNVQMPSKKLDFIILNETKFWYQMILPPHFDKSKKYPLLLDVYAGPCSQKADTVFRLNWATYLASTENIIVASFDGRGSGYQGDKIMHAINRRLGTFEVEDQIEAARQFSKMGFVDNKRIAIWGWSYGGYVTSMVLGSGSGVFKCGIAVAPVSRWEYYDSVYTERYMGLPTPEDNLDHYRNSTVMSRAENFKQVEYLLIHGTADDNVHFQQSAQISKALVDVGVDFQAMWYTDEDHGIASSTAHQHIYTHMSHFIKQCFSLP

As to `N[C@H](c1ccccc1)[C@@H](N)c1ccccc1`, the pIC50 was 4.12. The same measure for `N[C@H](c1ccccc1)[C@H](N)c1ccccc1`: 4.35.

By pIC50 is commonly meant the negative decadic logarithm of the IC50, by convention in mol/L. Low readings indicate a high IC50, high ones a low IC50.
